Like-named read-outs stand apart in the source and are kept apart here. Marks after values point to notes of the source that are not given here.
Tests used:
[1] = Description: (§1) They are idendified by ear markings and kept in groups of 4 under normal conditions with access to food and water as libitum. Tumors: Rat glioma cells, A15 (aks 1a2r) are obtained from ECACC. […] Tumors are induced by concentrating 5×10^5 cells in 50 μl and injecting s.c. in the flank of the rats. […] Generally experiments begin when the tumors are >150 mm^3. Patupilone: Patupilone is weighed and dissolved in a vehicle of 30% PEG-300 and 70% normal saline to a final concentration of 1 mg/ml. Patupilone is injected i.v. in the tail vein as a bolus of 2-3 seconds at a dose of 1.5 mg/kg once.
Efficacy and Tolerability: Tumor volume (Tvol) is quantified by change in tumor volume (endpoint vs. starting value in mm^3). As the T/CTVol, i.e. [ΔTVOldrug/ΔTVolvehicle]. The body weight of the rats is measured three times per week.
After 10 days the rats are treated on day-0 once with patupilone (PAT) at 1.5 mg/kg i.v. bolus (G2, G4-G7) or PAT-vehicle (G1 & G3). All rats treated with prednisolone (Predn) received the drug p.o. at 7 mg/kg for 5 consecutive days (except G7 for 3 days only) either 1-day before (G4), on the same day (G7), 1-day after patupilone (G6) or 3-days after patupilone (G5). […]

[2] = test system: Rat glioma cells, A15; test: BDix rat tumor model: s.c. A15 glioma tumour response; format: in vivo; conditions: for T/C Day-14: ΔTVol drug/ΔTVol vehicle
Text: As the T/CTVol, i.e. [ΔTVOldrug/ΔTVolvehicle].

[3] = test system: BDix rats; test: Patupilone-induced diarrhea scoring in BDix rats (grade 0-3, AUC days 3-7, days > G1); conditions: for Diarrh: Days > G1: BDix rats with s.c. A15 glioma; for Diarrhoea reduction (T/C) >G1D3-D6 / Diarrhoea reduction (T/C) AUCD3-D7: PAT 1.5 mg/kg i.v. D0, vs patupilone alone
Description: as §1, with “once. […] The suspension is sonicated for 30 min to achieve a milky suspension for oral administration (5 mL/kg).” for “once.”
Although prednisolone is administered orally daily, the dose and number of days of treatment are different in each experiment. The doses are 1, 3, 7 or 10 mg/kg which is roughly equivalent to 6, 17, 40 and 60 mg/m^2, respectively. When prednisolone and patupilone treatment are on the same day, prednisolone is administered 2-4 hours after treatment with patupilone.
Diarrhea: Diarrhea is monitored daily from day 3 post injection fo patupilone which is on day 0. Diarrhea is scored as follows:
Grade 1: soft but formed stool
Grade 2: soft unformed stool
Thus, each rat on each day of diarrhea (5 days from day […]) is graded 0-3 which allows a semi-quantitative analysis of the effects of different treatment. Two different abalytical methods are applied using a) area under the curve (AUCdays3-7) calculated using the trapezoidal rule as applied by Graphpad Prism (v. 4.0 for Windows) and b) the numbere of days in which diarrhea is graded >1. It is believed that the second approach is a more realistic comparison to the clinic since as described above G≦1 is not really diarrhea, and in the clinic, the major issue is avoiding severe diarrhea, i.e. clinical grades of ≧2.
After 10 days the rats are treated on day-0 once with patupilone (PAT) at 1.5 mg/kg i.v. bolus (G2, G4-G7) or PAT-vehicle (G1 & G3). All rats treated with prednisolone (Predn) received the drug p.o. at 7 mg/kg for 5 consecutive days (except G7 for 3 days only) either 1-day before (G4), on the same day (G7), 1-day after patupilone (G6) or 3-days after patupilone (G5).
Rats receive 7 mg/kg prednisolone (Predn) or the Predn-vehicle p.o. for 5 consecutive days (except G3 for 3 days) starting either on Day-0 (G1-G3) or after 24 hr (D+1) or 24 hr prior to PAT (D−1).

[4] = Total PAT exposure (AUC) in blood, tissues and tumor of BDix rats; format: in vivo, rat; conditions: for AUC24-336 hr (total PAT exposure): Example 4, mean ± SD, n = 3, PAT 1.5 mg/kg i.v. day 0, G2 Predn-vehicle or G4 Predn 7 mg/kg p.o. 5 days (D-1)
Description: G4 received prednisolone (Predn) p.o. at 7 mg/kg for 5 consecutive days while G2 received Predn-vehicle only for 5 days.

[5] = test system: HRPC (hormone-refractory prostate cancer) patients; test: Clinical trial in HRPC patients: patupilone-induced diarrhea; format: in vivo, human; conditions: 10 mg (ca. 5.5 mg/m^2) prednisone per day
Description: HRPC (hormone-refractory prostate cancer) patients in a clinical trial are getting 10 mg (ca. 5.5 mg/m^2) prednisone per day.

[6] = Example 1, BDix rats, PAT 1.5 mg/kg i.v. once + Predn vehicle p.o. 7 days
[7] = Example 2, BDix rats with s.c. A15 glioma, PAT 1.5 mg/kg i.v. once + Predn vehicle p.o. 7 days
[8] = Example 3 G2, BDix rats with s.c. A15 glioma, PAT 1.5 mg/kg i.v. day 0 + Predn vehicle
[9] = Example 5 G1, BDix rats, PAT 1.5 mg/kg i.v. Day 0 + Veh-Predn p.o. 5 days (D0)
[10] = Example 3 G2, PAT 1.5 mg/kg i.v. day 0 + Predn vehicle
[11] = Example 3 G3, BDix rats with s.c. A15 glioma, Predn 7 mg/kg p.o. 5 days + PAT vehicle
[12] = Example 3 G3, Predn 7 mg/kg p.o. 5 days + PAT vehicle
[13] = Example 1, Predn 1 mg/kg (6 mg/m^2) p.o. 7-days from D0
[14] = Example 1, Predn 3 mg/kg (17 mg/m^2) p.o. 7-days from D0
[15] = Example 1, Predn 10 mg/kg (60 mg/m^2) p.o. 7-days from D0
[16] = Example 2, Predn 3 mg/kg (17 mg/m^2) p.o. 7-days from D0
[17] = Example 2, Predn 10 mg/kg (60 mg/m^2) p.o. 7-days from DO
[18] = Example 3, Predn 7 mg/kg (40 mg/m^2) p.o. 3-days from D0
[19] = Example 3, Predn 7 mg/kg (40 mg/m^2) p.o. 5-days from D+1
[20] = Example 3, Predn 7 mg/kg (40 mg/m^2) p.o. 5-days from D−1
[21] = Example 3, Predn 7 mg/kg (40 mg/m^2) p.o. 7-days from D+3
[22] = Example 5, Predn 7 mg/kg (40 mg/m^2) p.o. 3-days from D0
[23] = Example 5, Predn 7 mg/kg (40 mg/m^2) p.o. 5-days from D0
[24] = Example 5, Predn 7 mg/kg (40 mg/m^2) p.o. 5-days from D+1
[25] = Example 5, Predn 7 mg/kg (40 mg/m^2) p.o. 5-days from D−1

## C/C(=C\c1csc(C)n1)[C@@H]1C[C@@H]2O[C@]2(C)CCC[C@H](C)[C@H](O)[C@@H](C)C(=O)C(C)(C)[C@@H](O)CC(=O)O1 [PAT, epothilone B]
[1]; [6]
  BW (g) Day-7: 150 ± 3 g
  Survival: 6/6
  Δ% BW Day-7: −16.3 ± 1.3%
  ΔBW (g) Day-7: -29.5 ± 3.1 g
[1]; [7]
  BW (g) Day-6: 186 ± 3 g
  Survival: 6/6
  Δ% BW Day-13: −4.1 ± 2.1%
[1]; [8]
  BW (g) Day-14: 179 ± 4 g
  Survival: 8/8
  Δ% BW Day-7: −18.6 ± 1.3 %
  Δ% BW Day-14: −4.4 ± 1.8 %
[1]; [9]
  BW (g) Day-7: 163 ± 3 g
  Survival: 8/8
  Δ% BW Day-7: −12.0 ± 1.2%
[2]; [7]
  Tumour Wt: 0.83 ± 0.17 g
[2]; [8]
  ΔTVol Day-14: 277 ± 37
[2]; [10]
  T/C Day-14: 0.35*
[3]; [6]
  Diarrhoea: Days > G1: 2.7 ± 0.2 days
[3]; Example 2, PAT 1.5 mg/kg i.v. once + Predn vehicle p.o. 7 days
  Diarrh: Days > G1: 1.7 ± 0.3 days
[3]; [10]
  Diarrh: Days > G1: 2.9 ± 0.3 days
[3]; [9]
  Diarrhoea: Days > G1: 1.5 ± 0.3 days
[4]; Blood
  AUC24-336 hr (total PAT exposure): 1891 ± 344 ng/h/mL
[4]; Brain
  AUC24-336 hr (total PAT exposure): 64948 ± 6237 ng/h/mL
[4]; Caecum
  AUC24-336 hr (total PAT exposure): 53911 ± 10512 ng/h/mL
[4]; Jejunum
  AUC24-336 hr (total PAT exposure): 57045 ± 3988 ng/h/mL
[4]; Liver
  AUC24-336 hr (total PAT exposure): 56278 ± 9988 ng/h/mL
[4]; Tumor
  AUC24-336 hr (total PAT exposure): 142437 ± 36429 ng/h/mL

## C[C@]12C=CC(=O)C=C1CC[C@@H]1[C@@H]2C(=O)C[C@@]2(C)[C@H]1CC[C@]2(O)C(=O)CO [prednisone]
[5]
  Effect on epothilone B (patupilone)-induced diarrhea: does not seem to have an effect

## C[C@]12C=CC(=O)C=C1CC[C@@H]1[C@@H]2[C@@H](O)C[C@@]2(C)[C@H]1CC[C@]2(O)C(=O)CO [Predn, prednisolone]
[1]; [11]
  Survival: 8/8
[2]; [11]
  ΔTVol Day-14: 728 ± 93
[2]; [12]
  T/C Day-14: 0.93
[3]; BDix rats, summary of Examples 1-6
  Effect on diarrhea caused by an efficacious dose of patupilone: able to reproducibly reduce diarrhea
[3]; [13]
  Diarrhoea reduction (T/C) >G1D3-D6: 0.81
  Diarrhoea reduction (T/C) AUCD3-D7: 0.85
[3]; [14]
  Diarrhoea reduction (T/C) >G1D3-D6: 0.13
  Diarrhoea reduction (T/C) AUCD3-D7: 0.30
[3]; [15]
  Diarrhoea reduction (T/C) >G1D3-D6: 0.06
  Diarrhoea reduction (T/C) AUCD3-D7: 0.20
[3]; [16]
  Diarrhoea reduction (T/C) >G1D3-D6: 0
  Diarrhoea reduction (T/C) AUCD3-D7: 0.14
[3]; [17]
  Diarrhoea reduction (T/C) >G1D3-D6: 0
  Diarrhoea reduction (T/C) AUCD3-D7: 0.01
[3]; [18]
  Diarrhoea reduction (T/C) >G1D3-D6: 0.57
  Diarrhoea reduction (T/C) AUCD3-D7: 0.60
[3]; [19]
  Diarrhoea reduction (T/C) >G1D3-D6: 0.52
  Diarrhoea reduction (T/C) AUCD3-D7: 0.57
[3]; [20]
  Diarrhoea reduction (T/C) >G1D3-D6: 0.65
  Diarrhoea reduction (T/C) AUCD3-D7: 0.61
[3]; [21]
  Diarrhoea reduction (T/C) >G1D3-D6: 0.57
  Diarrhoea reduction (T/C) AUCD3-D7: 0.75
[3]; [12]
  Diarrh: Days > G1: 0 days
[3]; [22]
  Diarrhoea reduction (T/C) >G1D3-D6: 0.08
  Diarrhoea reduction (T/C) AUCD3-D7: 0.11
[3]; [23]
  Diarrhoea reduction (T/C) >G1D3-D6: 0
  Diarrhoea reduction (T/C) AUCD3-D7: 0.03
[3]; [24]
  Diarrhoea reduction (T/C) >G1D3-D6: 0
  Diarrhoea reduction (T/C) AUCD3-D7: 0.17
[3]; [25]
  Diarrhoea reduction (T/C) >G1D3-D6: 0
  Diarrhoea reduction (T/C) AUCD3-D7: 0.18
[4]; BDix rats, summary
  Effect of prednisolone on patupilone exposure: no evidence that prednisolone interferred with significantly with patupilone exposure

Source: US20100267682A1, “CORTICOSTEROIDS TO TREAT EPOTHILONE OR EPOTHILONE DERIVATIVE INDUCED DIARRHEA” (NOVARTIS AG, priority 2007, published 2010)
